Where two headings read alike, the source gives them in different places. Blank lines part the entries; values can stand above or below the molecule they belong to.
Experiments:
[1] = tested on: acetic acid induced writhing movements; test: Writhing test in mice (acetic acid); assay type: in vivo, mice (NMRI/BOM); settings: Mus musculus, po, 20 min, read-out: Analgesic ED50, writhing test
Description: (§1) Tests for analgesic activity
(§2) 1. Writhing test in mice. (SPF females of the strain NMRI/BOM, weighing 20-25 g). The test substance was administered by gavage 1/2 hour prior to an intraperitoneal injection of acetic acid. The number of writhing movements in 20 minutes was counted.

[2] = tested on: brewer's yeast injected rat paw; test: Randall-Selitto test in rats (analgesia-meter, brewer's yeast paw); assay type: in vivo, rats (Sprague-Dawley); settings: po, gavage 2 hours after brewer's yeast in paw, read-out: Analgesic ED50, analgesia-meter
Description: Tests for analgesic activity 2. Randall-Selitto test in rats. (SPF males of the strain Sprague-Dawley, weighing 90-100 g). The test was performed on the whole as described by Randall and Selitto: Arch. Int. Pharmacodyn. Ther. 111, 409 (1957).

[3] = Ulcerogenic activity in rats; assay type: in vivo, rats (Sprague-Dawley); settings: rat, in vivo, po
Description: (§3) Ulcerogenic activity in rats
(§4) SPF males of the strain Sprague-Dawley weighing 180-250 g were used. 5 hours after administration by gavage of the test substance the rates were killed by an overdose of ether. The stomachs were removed and opened along the greater curvature. The number of ulcers was assessed and compared to control rats.

PG-synthetase = test: Prostaglandin-synthetase inhibition test (Vane); assay type: biochemical; settings: AA = arachidonic acid
[4] = tested on: arachidonic acid induced aggregation of human platelet rich plasma; test: Platelet aggregation inhibition test (arachidonic acid induced, human platelet rich plasma); assay type: cell-based; settings: AA = arachidonic acid
Description: Platelet aggregation inhibition test The ability of the test substance to inhibit arachidonic acid induced aggregation of human platelet rich plasma was tested in a HU aggregometer (from H. Upchurch & Co. Ltd.).

[5] = tested on: arachidonic acid induced bronchoconstrictions; test: Inhibition of arachidonic acid induced bronchoconstrictions in guinea-pigs; assay type: in vivo; settings: Cavia porcellus, read-out: Inhibition of arachidonic acid induced bronchoconstrictions ID50
Description: Inhibition of arachidonic acid (AA) induced bronchoconstrictions in guinea-pigs. Test compounds were given intravenously to anaesthetized guinea-pigs 5 min. before intravenous injection of AA (200-500 μg/kg). Bronchial pressure was measured and percent inhibition calculated as compared to the mean of 3 preceding AA-induced control constrictions obtained after injection of vehicle in the same animal.

stomach ulcers = test: Ulcerogenic activity in rats; assay type: in vivo, rats (Sprague-Dawley); settings: rats, gavage, 5 hours
Description: as §3, §4

[6] = Tests for analgesic activity (general); assay type: in vivo, mice; rats; settings: compared with the compounds of the invention, or general
Description: as §1, §2
2. Randall-Selitto test in rats. (SPF males of the strain Sprague-Dawley, weighing 90-100 g). The test was performed on the whole as described by Randall and Selitto: Arch. Int. Pharmacodyn. Ther. 111, 409 (1957). An analgesia-meter of the make Ugo Basile was used and the test substance was administered by gavage 2 hours after injection of a suspension of brewer's yeast into the rat paw.

[7] = tested on: carrageenin-injected rat paw; test: Test for antiinflammatory activity in rats (carrageenin paw); assay type: in vivo, rats (Sprague-Dawley); settings: po, read-out: Antiinflammatory test ED50
Description: Test for antiinflammatory activity in rats SPF males of the strain Sprague-Dawley, weighing~150 g were used. The test was performed according to Winter et al.: Proc. Soc. […] The test substance was given by gavage 1 hour prior to injection of a carrageenin-suspension into the rat paw.

in vivo = settings: mouse; for LD50 at 168 h: po, read-out: Acute toxicity LD50
Description: Test for acute toxicity (LD50) in mice
The test substance was administered by gavage.

[8] = mice, gavage 1/2 hour before i.p. acetic acid, writhings in 20 minutes
[9] = guinea-pigs, intravenous, 5 min before i.v. AA (200-500 μg/kg)

Structure (SMILES): COc1ccc(-c2nc(-c3ccc(F)c(F)c3)[nH]c2-c2ccc(OC)cc2)cc1 [Compound 9, 2-(3,4-Difluorphenyl)-4,5-bis(4-methoxyphenyl)imidazole]
ED50 [1, 8]: 1.9 mg/kg | ED50 [2]: 0.062 mg/kg | TD50 at 5 h [3]: 45 mg/kg | Inhibition of PG-synthetase IC50 (PG-synthetase): 0.11 μg/10 μg AA | Inhibition of platelet aggregation IC100 [4]: 0.006 μg/190 μg AA | ED50 [5, 9]: 11.5 µg/kg

Structure (SMILES): COc1ccc(-c2nc(-c3ccc(F)cc3F)[nH]c2-c2ccc(OC)cc2)cc1 [Compound 6, 2-(2,4-Difluorphenyl)-4,5-bis(4-methoxyphenyl)imidazole]
ED50 [1, 8]: 4 mg/kg | TD50 at 5 h [3]: 1580 mg/kg | Inhibition of PG-synthetase IC50 (PG-synthetase): 0.27 μg/10 μg AA | Inhibition of platelet aggregation IC100 [4]: 0.12 μg/190 μg AA | ED50 [5, 9]: 2.1 µg/kg

Structure (SMILES): COc1ccc2cc([C@H](C)C(=O)O)ccc2c1 [Compound 14, Naproxen, reference compound]
Ulcerogenic activity ED50 (stomach ulcers): 19.5 mg/kg | Inhibition of PG-synthetase IC50 (PG-synthetase): 0.49 μg/10 μg AA

Inhibition of PG-synthetase IC50 (PG-synthetase): 0.21 μg/10 μg AA
Structure (SMILES): COc1ccc(-c2nc(-c3cccc(F)c3)[nH]c2-c2ccc(OC)cc2)cc1 [Compound 3, 2-(3-Fluorphenyl)-4,5-bis(4-methoxyphenyl)imidazole]
ED50 [1, 8]: 3.2 mg/kg | Inhibition of platelet aggregation IC100 [4]: 0.12 μg/190 μg AA | ED50 [5, 9]: 3.6 µg/kg

Structure (SMILES): CC(C)(C)NCC(O)c1ccc(O)c(CO)c1 (stereo not shown) [Compound 16, Salbutamol, reference compound]
ED50 [5, 9]: 16 µg/kg

Structure (SMILES): COc1ccc(-c2nc(C(C)C)[nH]c2-c2ccc(OC)cc2)cc1 [Compound 12, 2-Isopropyl-4,5-bis(4-methoxyphenyl)imidazole, reference compound]
ED50 [1, 8]: 200 mg/kg | Analgesic activity (in words) [6]: much weaker analgesic activity than the compounds of the present invention

Inhibition of PG-synthetase IC50 (PG-synthetase): 0.23 μg/10 μg AA
Structure (SMILES): COc1ccc(-c2nc(-c3ccccc3F)[nH]c2-c2ccc(OC)cc2)cc1 [Compound 2, 2-(2-Fluorphenyl)-4,5-bis(4-methoxyphenyl)imidazole]
ED50 [1, 8]: 15 mg/kg | Inhibition of platelet aggregation IC100 [4]: 0.024 μg/190 μg AA | ED50 [5, 9]: 10.6 µg/kg

Inhibition of PG-synthetase IC50 (PG-synthetase): 0.13 μg/10 μg AA
Structure (SMILES): COc1ccc(-c2nc(-c3c(F)cccc3F)[nH]c2-c2ccc(OC)cc2)cc1 [Compound 8, 2-(2,6-Difluorphenyl)-4,5-bis(4-methoxyphenyl)imidazole]
ED50 [1, 8]: 6.8 mg/kg | Inhibition of platelet aggregation IC100 [4]: 0.012 μg/190 μg AA | ED50 [5, 9]: 4.9 µg/kg

Structure (SMILES): CC(=O)Oc1ccccc1C(=O)O [Compound 15, Acetyl salicylic acid, reference compound]
ED50 [1]: 100 mg/kg | ED50 [7]: 350 mg/kg | Ulcerogenic activity ED50 (stomach ulcers): 340 mg/kg | Inhibition of PG-synthetase IC50 (PG-synthetase): 7.61 μg/10 μg AA | Inhibition of platelet aggregation IC100 [4]: 2.38 μg/190 μg AA | ED50 ([5]; iv): 234 µg/kg

Structure (SMILES): COc1ccc2c(c1)c(CC(=O)O)c(C)n2C(=O)c1ccc(Cl)cc1 [Compound 13, Indomethacin, reference compound]
ED50 [1]: 8 mg/kg | ED50 [2]: 0.36 mg/kg | ED50 [7]: 28 mg/kg | Ulcerogenic activity ED50 (stomach ulcers): 9.7 mg/kg | Inhibition of PG-synthetase IC50 (PG-synthetase): 0.65 μg/10 μg AA | Inhibition of platelet aggregation IC100 [4]: 1.19 μg/190 μg AA | ED50 ([5]; iv): 115 µg/kg

Structure (SMILES): COc1ccc(-c2nc(-c3cccc(F)c3F)[nH]c2-c2ccc(OC)cc2)cc1 [Compound 5, 2-(2,3-Difluorphenyl)-4,5-bis(4-methoxyphenyl)imidazole]
ED50 [1, 8]: 4.6 mg/kg | LD50 at 168 h (in vivo): 3120 mg/kg | Inhibition of PG-synthetase IC50 (PG-synthetase): 0.21 μg/10 μg AA | Inhibition of platelet aggregation IC100 [4]: 0.024 μg/190 μg AA | ED50 [5, 9]: 8.7 µg/kg

Structure (SMILES): COc1ccc(-c2nc(-c3cc(F)cc(F)c3)[nH]c2-c2ccc(OC)cc2)cc1 [Compound 10, 2-(3,5-Difluorphenyl)-4,5-bis(4-methoxyphenyl)imidazole]
ED50 [1, 8]: 10 mg/kg | LD50 at 168 h (in vivo): > 2000 mg/kg | Inhibition of PG-synthetase IC50 (PG-synthetase): 0.38 μg/10 μg AA | Inhibition of platelet aggregation IC100 [4]: 0.12 μg/190 μg AA | ED50 [5, 9]: 9.7 µg/kg

Inhibition of PG-synthetase IC50 (PG-synthetase): 0.18 μg/10 μg AA
Structure (SMILES): COc1ccc(-c2nc(-c3ccc(F)cc3)[nH]c2-c2ccc(OC)cc2)cc1 [Compound 4, 2-(4-Fluorphenyl)-4,5-bis(4-methoxyphenyl)imidazole]
ED50 [1, 8]: 5 mg/kg | Inhibition of platelet aggregation IC100 [4]: 0.048 μg/190 μg AA | ED50 [5, 9]: 4.7 µg/kg

Structure (SMILES): COc1ccc(-c2nc(C(F)(F)F)[nH]c2-c2ccc(OC)cc2)cc1 [Compound 11, 2-Trifluormethyl-4,5-bis(4-methoxyphenyl)imidazole, reference compound]
ED50 [1, 8]: 75 mg/kg | Toxicity (in words) (in vivo): higher toxicity than the compounds of the present invention | Inhibition of platelet aggregation IC100 [4]: 0.06 μg/190 μg AA | Analgesic activity (in words) [6]: weaker analgesic activity

Inhibition of PG-synthetase IC50 (PG-synthetase): 1.71 μg/10 μg AA
Structure (SMILES): COc1ccc(-c2nc(-c3cc(F)ccc3F)[nH]c2-c2ccc(OC)cc2)cc1 [Compound 7, 2-(2,5-Difluorphenyl)-4,5-bis(4-methoxyphenyl)imidazole]
ED50 [1, 8]: 16 mg/kg | Inhibition of platelet aggregation IC100 [4]: 0.024 μg/190 μg AA | ED50 [5, 9]: 2.4 µg/kg

Structure (SMILES): COc1ccc(-c2nc(-c3ccc(F)cc3)n(CCC(=O)O)c2-c2ccc(OC)cc2)cc1 [Compound 1, 1-(2-Carboxyethyl)-2-(4-fluorphenyl)-4,5-bis(4-methoxyphenyl)imidazole, reference compound]
ED50 [1, 8]: > 200 mg/kg

From patent US4424229A, “Fluorine containing 2,4,5-triphenylimidazoles” (A/S Dumex (Dumex Ltd.), priority 1982, dated 1984)
